Test results from patent US20230286955A1, “INHIBITORS OF THEM1” (Cornell University, priority 2022, published 2023).
Entries after “also recorded” stand apart in the source; their conditions may differ.

Key:
primary hepatocytes [1] = test: Glucose production in primary hepatocytes; assay type: cell-based, mouse; conditions: compound 33 μM, pyruvate 2 mM, lactate 20 mM
Procedure: (§1) Primary hepatocytes cultured were prepared from 6- to 14-w old wild type, L-Them1Tg and Them1^−/− mice following anesthesia with ketamine and xylazine. Livers were perfused through the portal vein with 20 mL of liver perfusion medium (Thermo Fisher; Walham, MA) followed by 40 mL of liver digestion medium (Thermo Fisher; Walham, MA). Primary hepatocytes were gently disrupted from the liver capsule into hepatocyte wash medium (Thermo Fisher; Waltham, MA), filtered through a 70 μm cell strainer and then spun down at 30×g for 4 min at 4° C. Primary hepatocytes were cultured in William's Medium E (Thermo Fisher; Waltham, MA) supplemented with 1% penicillin/streptomycin and 10% fetal bovine serum. […] Cultured primary hepatocytes were maintained in a cell culture incubator at 37° C. with 5% CO2.
Rates of glucose production were determined as previously described with modifications (Kawano et al., 2014). Primary hepatocytes cultured from wild type, L-Them1Tg and Them1^−/' mice were serum-starved in Medium 199 (Thermo Fisher; Waltham, MA) for 16 h and then washed twice with PBS. […] Glucose concentrations in the media were measured enzymatically through a commercial kit according to the manufacturer's instructions using a NEO plate reader (BioTek, Winooski, VT).

primary hepatocytes [2] = test: Oxygen consumption rates (OCR) in primary hepatocytes after palmitate; assay type: cell-based, mouse; conditions: compound 33 μM, palmitate-BSA 300 μM
Procedure: as §1
In primary hepatocytes, values of OCR were measured using a Seahorse XF24 extracellular flux analyzer (Agilent Technologies; Santa Clara, CA). […] OCR values were measured before and after the exposure of cells to palmitic acid conjugated with fatty acid-free BSA (300 μM) and normalized with total live cell count calculated through staining with NucRed Live probe (Thermo Fisher; Waltham, MA) measured at 715 nm emission and 623 nm excitation using a SpectraMax i3X plate reader (Molecular Devices; San Jose; CA).

[3] = tested on: primary brown adipocytes cultured from A-Them1Tg mice; test: Oxygen consumption rates (OCR) in primary brown adipocytes; assay type: cell-based, mouse
Procedure: Primary brown adipocytes from 4- to 6-w old wild type and A-Them1Tg mice were isolated, cultured and differentiated as described (Okada et al., 2016). In brief, BAT tissues harvested from 5- to 7-w old mice were pooled, minced and digested with collagenase B (Sigma-Aldrich; St. Louis, MO), and dispersed in growth medium [DMEM/F12 containing 4.5 g/L glucose, 0.1 mM pyruvate, 10 mM HEPES (Thermo Fisher; Waltham, MA) supplemented with 1% penicillin/streptomycin, 1% GlutaMAX (Thermo Fisher; Waltham, MA) and 20% fetal bovine serum]. […] Upon achieving confluence, pre-adipocytes were induced to differentiate for 8 d by culturing for the first 48 h in differentiation medium [DMEM/F12 containing 4.5 g/L glucose, 0.1 mM pyruvate, 10 mM HEPES (Thermo Fisher; Waltham, MA) supplemented with 1% penicillin/streptomycin, 1% GlutaMAX (Thermo Fisher; Waltham, MA), 10% fetal bovine serum, bovine insulin (5 μg/mL; Thermo Fisher; Waltham, MA) and rosiglitazone (1 μM; Sigma Aldrich; St. Louis, MO)] supplemented with dexamethasone (5 μM; Sigma Aldrich; St. Louis, MO) and 3-isobutyl-1-methylxanthine (0.5 mM; Sigma Aldrich; St. Louis, MO) and differentiation medium thereafter. On differentiation d 6 to 8, the adipocyte differentiation media was supplemented with L-(−)-norepinephrine (+) bitartrate (Calbiochem; EMD Millipore; Billerica, MA). Primary brown adipocytes were maintained in a cell culture incubator at 37° C. with 5% CO2.
In primary brown adipocytes on d 8 of differentiation, values of OCR were measured in the presence or absence of compounds using a Seahorse XF96 extracellular flux analyzer (Agilent Technologies; Santa Clara, CA). […] OCR values were measured before and after the exposure of cells to NE (1 μM) and normalized with total live cell count calculated through staining with NucRed Live probe (Thermo Fisher; Waltham, MA) measured at 715 nm emission and 623 nm excitation using a SpectraMax i3X plate reader (Molecular Devices; San Jose; CA).

Them1-ΔSTART = target: T1, Them1-ΔSTART (Homo sapiens, UniProt Q8WXI4); test: Microscale thermophoresis binding, Them1-ΔSTART; conditions: for binding to Them1-ΔSTART: in words; for Kd: read-out: Kd, Thioesterase domains (Them1-ΔSTART ), MST, 100 nM labeled protein, 22° C.
T1 sequence (Q8WXI4 43-329 isoform Q8WXI4-2 limits assumed): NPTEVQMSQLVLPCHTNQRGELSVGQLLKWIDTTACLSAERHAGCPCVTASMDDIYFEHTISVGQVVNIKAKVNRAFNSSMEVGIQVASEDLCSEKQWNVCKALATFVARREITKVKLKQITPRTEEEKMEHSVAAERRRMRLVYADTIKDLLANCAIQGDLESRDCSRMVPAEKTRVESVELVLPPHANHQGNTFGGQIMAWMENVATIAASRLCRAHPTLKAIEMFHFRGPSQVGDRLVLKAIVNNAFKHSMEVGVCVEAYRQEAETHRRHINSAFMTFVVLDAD

[4] = target: T2, recombinant His-tagged human Them1 (Homo sapiens, UniProt Q8WXI4); test: Assay for reversibility of Them1 inhibition (dialysis); assay type: biochemical; conditions: compounds […], C14-CoA 25 μM, 18 h dialysis
T2 construct: Reaction labeling recombinant full-length Them1; made in house; host or cells: E. coli Shuffle T7
T2 sequence (Q8WXI4 14-594 isoform Q8WXI4-2 limits assumed): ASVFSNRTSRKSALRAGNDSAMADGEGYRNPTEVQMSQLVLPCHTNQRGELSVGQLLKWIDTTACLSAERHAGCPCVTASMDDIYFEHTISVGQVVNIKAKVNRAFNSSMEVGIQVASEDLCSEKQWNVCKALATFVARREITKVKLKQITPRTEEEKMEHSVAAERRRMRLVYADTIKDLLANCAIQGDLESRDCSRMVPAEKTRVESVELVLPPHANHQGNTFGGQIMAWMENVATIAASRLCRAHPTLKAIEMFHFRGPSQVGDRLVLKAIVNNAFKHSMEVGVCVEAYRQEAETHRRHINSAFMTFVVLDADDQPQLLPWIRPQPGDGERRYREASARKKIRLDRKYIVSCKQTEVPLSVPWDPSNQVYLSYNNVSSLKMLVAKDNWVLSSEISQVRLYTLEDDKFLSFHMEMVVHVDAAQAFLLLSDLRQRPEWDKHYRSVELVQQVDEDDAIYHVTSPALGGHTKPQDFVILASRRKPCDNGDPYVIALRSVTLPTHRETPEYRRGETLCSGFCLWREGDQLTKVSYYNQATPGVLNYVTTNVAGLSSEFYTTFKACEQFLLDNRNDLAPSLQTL
Procedure: Three buffer changes were performed over the extent of the 18 h dialysis. Post-dialysis reactions were incubated with fresh C14-CoA (25 μM) for 60 min at 22° C. Ebselen (Sigma Aldrich; St. Louis, MO) was used as a (−) control.

in vitro = conditions: C57BL/6, mouse, primary brown adipocytes
recombinant mouse Them1 = target: T3, recombinant mouse Them1 (Mus musculus, UniProt Q8VHQ9); test: Acot activity assay, mouse Them1; assay type: biochemical; conditions: in words (FIG. 6B)
T3 construct: made in house; host or cells: E. coli BL21 (DE3)
T3 sequence (Q8VHQ9 21-594): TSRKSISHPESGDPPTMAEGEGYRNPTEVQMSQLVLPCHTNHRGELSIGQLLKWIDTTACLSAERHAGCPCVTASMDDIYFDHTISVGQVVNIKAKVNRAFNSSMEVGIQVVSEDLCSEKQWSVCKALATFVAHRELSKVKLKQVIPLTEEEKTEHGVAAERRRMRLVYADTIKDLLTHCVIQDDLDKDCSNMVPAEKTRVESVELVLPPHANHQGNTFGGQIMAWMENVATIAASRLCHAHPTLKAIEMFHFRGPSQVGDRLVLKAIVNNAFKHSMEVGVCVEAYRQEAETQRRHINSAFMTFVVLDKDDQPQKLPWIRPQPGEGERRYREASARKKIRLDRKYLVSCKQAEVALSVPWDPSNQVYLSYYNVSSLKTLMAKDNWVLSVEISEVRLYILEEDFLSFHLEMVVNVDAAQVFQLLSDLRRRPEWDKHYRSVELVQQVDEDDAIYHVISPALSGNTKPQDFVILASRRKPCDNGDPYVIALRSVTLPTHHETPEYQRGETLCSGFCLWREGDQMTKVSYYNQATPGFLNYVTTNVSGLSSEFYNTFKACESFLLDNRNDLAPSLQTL
From the text: (Zhang et al., 1999). Values are show in the following Table.

full-length human Acot12 = full-length human Acot12 (Homo sapiens, UniProt Q8WYK0); test: biochemical
Them1 START domain = target: T4, Them1 START domain (Homo sapiens, UniProt Q8WXI4); test: Microscale thermophoresis binding, START domain; conditions: in words
T4 sequence (Q8WXI4 339-594 isoform Q8WXI4-2): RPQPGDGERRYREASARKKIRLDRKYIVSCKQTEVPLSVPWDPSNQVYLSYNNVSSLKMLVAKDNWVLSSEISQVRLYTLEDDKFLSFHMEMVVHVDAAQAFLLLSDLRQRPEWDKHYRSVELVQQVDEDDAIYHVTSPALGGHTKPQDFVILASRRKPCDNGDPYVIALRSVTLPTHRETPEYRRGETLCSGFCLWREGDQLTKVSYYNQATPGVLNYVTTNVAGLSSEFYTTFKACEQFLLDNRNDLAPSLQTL

full-length Them1 [5] = target: T5, full-length Them1 (Homo sapiens, UniProt Q8WXI4); test: biochemical
T5 sequence (Q8WXI4 14-594 isoform Q8WXI4-2 limits assumed): T2 sequence (Q8WXI4 14-594 isoform Q8WXI4-2 limits assumed)

full-length Them1 [6] = target: T5, full-length Them1; test: Microscale thermophoresis binding, full-length Them1; conditions: in words

full-length human Acot12, sequence (Q8WYK0 whole entry, the tested form may be a part): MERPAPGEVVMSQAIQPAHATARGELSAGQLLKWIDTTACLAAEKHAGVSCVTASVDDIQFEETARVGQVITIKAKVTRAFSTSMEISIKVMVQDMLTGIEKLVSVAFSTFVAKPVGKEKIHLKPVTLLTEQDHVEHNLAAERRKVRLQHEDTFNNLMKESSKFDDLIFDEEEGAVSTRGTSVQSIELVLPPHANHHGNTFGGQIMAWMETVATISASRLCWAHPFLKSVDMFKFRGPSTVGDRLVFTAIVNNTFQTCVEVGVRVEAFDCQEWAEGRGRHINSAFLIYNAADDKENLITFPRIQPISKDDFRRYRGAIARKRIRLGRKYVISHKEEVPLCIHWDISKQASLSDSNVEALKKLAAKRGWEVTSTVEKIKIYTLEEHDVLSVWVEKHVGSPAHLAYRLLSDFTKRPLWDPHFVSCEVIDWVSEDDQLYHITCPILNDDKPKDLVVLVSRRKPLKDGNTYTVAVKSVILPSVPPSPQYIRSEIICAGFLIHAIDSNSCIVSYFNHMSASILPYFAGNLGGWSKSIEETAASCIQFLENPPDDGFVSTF

| glucose production in L-Them1Tg hepatocytes (primary hepatocytes [1]) | OCR following palmitate stimulation in Them1−/− hepatocytes (primary hepatocytes [2]) | Kd (Them1-ΔSTART) | Them1 activity after overnight dialysis (reversibility of inhibition) [4] | inhibition of mouse Them1 activity compared to human Them1 (recombinant mouse Them1) | Kd (full-length human Acot12) | binding affinity to the START domain compared to the parent U1 compound (Them1 START domain) | Kd (full-length Them1 [5]) | Kd / binding affinity to full-length Them1 compared to the parent U1 compound (full-length Them1 [6]) | SMILES | OCR following palmitate stimulation in L-Them1Tg hepatocytes (primary hepatocytes [2]) | OCR in A-Them1Tg brown adipocytes, reversal of Them1 suppression ([3]; NE-stimulated, compounds at 10 μM (FIGS. 3B-C, 8B-C)) | binding to Them1-ΔSTART (Them1-ΔSTART) | CC50 at 48 h (in vitro) | OCR in A-Them1Tg brown adipocytes, reversal of Them1 suppression ([3]; compounds at their in vitro IC50 concentrations, 30 min, NE 1 μM, vs wild type (DMSO)) |
| --- | --- | --- | --- | --- | --- | --- | --- | --- | --- | --- | --- | --- | --- | --- |
| reduced | did not increase OCR values | > 125 µM | restored Them1 activity | comparable potencies | > 125 µM | – | – | – | CCOC(=O)N1CCN(C(c2cccs2)c2c(C)[nH]c3ccccc23)CC1 (stereo not drawn) [Compound U1, ethyl 4-((2-methyl-1H-indol-3-yl)(thiophen-2-yl)methyl)piperazine-1-carboxylate] | reversed this suppressive effect of Them1 | reversed the suppressive effects of Them1 activity | lacked the capacity to bind; also recorded: lacked binding | > 125 µM | – |
| – | – | > 125 µM | – | – | > 125 µM | tighter | 0.87 µM | tighter | Cc1[nH]c2ccccc2c1C(c1cccs1)N1CCN(C(=O)C(C)C)CC1 (stereo not drawn) [Compound U11, 2-methyl-1-(4-((2-methyl-1H-indol-3-yl)(thiophen-2-yl)methyl)piperazin-1-yl)propan-1-one] | – | – | did not bind | > 125 µM | reversed the suppressive effects of Them1 on values of OCR |
